Results from patent publication US20200340007A1, “CLALS PROTEIN, ITS CODING GENE AND USE IN PREDICTING THE HERBICIDE RESISTANCE OF WATERMELON” (BEIJING ACADEMY OF AGRICULTURE AND FORESTRY SCIENCES, priority 2018, published 2020).

Experiments:
[1] = system: P190L heterozygous mutant strain seedlings; test: Identification of herbicide resistance spectrum; type: in vivo, watermelon; conditions: leaf spray, tribenuron 15, halosulfuron 33.75, bensulfuron 22.5, pyrazosulfuron 24, flumetsulam 48, flucarbazone 31.5 g ai/ha, 7 days
Excerpt: (§1) Watermelon seeds to be tested are seeds of non-transgenic watermelon, seeds of P190L homozygous mutant strain, seeds of P190S homozygous mutant strain, seeds of P190L heterozygous mutant strain, or seeds of P190S heterozygous mutant strain.
(§2) The experiment was repeated three times, and the steps for each are as follows:
(§3) 1. Planting 5 watermelon seeds to be tested in the field and culturing routinely for 10 days until the cotyledons are flattened to obtain the watermelon seedlings to be tested.
(§4) 2. After step 1 is completed, taking the watermelon seedlings to be tested and spraying the leaves with tribenuron, halosulfuron, bensulfuron, pyrazosulfuron, flumetsulam, and flucarbazone, respectively (spraying dose of tribenuron, halosulfuron, bensulfuron, pyrazosulfuron, flumetsulam, and flucarbazone were 15, 33.75, 22.5, 24, 48, and 31.5 g ai/ha; g represents gram, ai represents the active ingredient, ha represents hectare), and then culturing for 7 days to observe the growth status of the watermelon seedling to be tested.
(§5) 3. After step 1 is completed, taking the watermelon seedlings to be tested, spraying the leaves with the same volume of water as the herbicide in step 2, and then culturing for 7 days, to observe the growth status of the watermelon seedlings as a control.

[2] = system: P190L homozygous mutant strain seedlings; test: Identification of herbicide resistance spectrum; type: in vivo, watermelon; conditions: leaf spray, tribenuron 15, halosulfuron 33.75, bensulfuron 22.5, pyrazosulfuron 24, flumetsulam 48, flucarbazone 31.5 g ai/ha, 7 days
Excerpt: as §1, §2, §3, §4, §5

[3] = system: P190S heterozygous mutant strain seedlings; test: Identification of herbicide resistance spectrum; type: in vivo, watermelon; conditions: leaf spray, tribenuron 15, halosulfuron 33.75, bensulfuron 22.5, pyrazosulfuron 24, flumetsulam 48, flucarbazone 31.5 g ai/ha, 7 days
Excerpt: as §1, §2, §3, §4, §5

[4] = system: P190S homozygous mutant strain seedlings; test: Identification of herbicide resistance spectrum; type: in vivo, watermelon; conditions: leaf spray, tribenuron 15, halosulfuron 33.75, bensulfuron 22.5, pyrazosulfuron 24, flumetsulam 48, flucarbazone 31.5 g ai/ha, 7 days
Excerpt: as §1, §2, §3, §4, §5

[5] = system: non-transgenic watermelon seedlings; test: Identification of resistance to the herbicide tribenuron, seedlings sprayed in the field; type: in vivo; conditions: leaf spray 17 g ai/ha
Excerpt: (§6) The watermelon seeds to be tested are seeds of non-transgenic watermelon, seeds of P190L homozygous mutant strains, seeds of P190S homozygous mutant strains, seeds of P190L heterozygote mutant strains, or seeds of P190S heterozygote mutant strains.
(§7) The experiment was repeated three times, and the steps for each were as follows:
(§8) 1. Planting 20 watermelon seeds to be tested in the field and culturing routinely to obtain watermelon seedlings to be tested in a two-leaf one-heart period.
(§9) 2. After step 1 is completed, taking the watermelon seedlings to be tested, spraying the leaves with tribenuron (the spraying dose is 17 g ai/ha; g represents gram, ai represents the active ingredient, and ha represents hectare), and then culturing routinely for 7 days to observe the growth status of the watermelon seedlings to be tested.

[6] = system: P190L heterozygous mutant strain seedlings; test: as above; type: in vivo, watermelon; conditions: leaf spray 17 g ai/ha, observed 7 days
Excerpt: as §6, §7, §8, §9

[7] = system: P190L homozygous mutant strain seedlings; test: as above; type: in vivo, watermelon; conditions: leaf spray 17 g ai/ha
Excerpt: as §6, §7, §8, §9

[8] = system: P190S heterozygous mutant strain seedlings; test: as above; type: in vivo, watermelon; conditions: leaf spray 17 g ai/ha, observed 7 days
Excerpt: as §6, §7, §8, §9

[9] = system: P190S homozygous mutant strain seedlings; test: as above; type: in vivo, watermelon; conditions: leaf spray 17 g ai/ha
Excerpt: as §6, §7, §8, §9

Structure (SMILES) | resistance of seedlings to the herbicide compared with non-transgenic watermelon [1] | resistance of seedlings to the herbicide compared with non-transgenic watermelon [2] | resistance of seedlings to the herbicide compared with non-transgenic watermelon [3] | resistance of seedlings to the herbicide compared with non-transgenic watermelon [4] | time to death of seedlings after spraying [5] | growth status of the watermelon seedlings after spraying ([5]; two-leaf one-heart period, observed 7 days) | growth status of the watermelon seedlings after spraying [6] | growth after spraying compared with seedlings of the heterozygous mutant strains ([7]; 7 days) | growth status of the watermelon seedlings after spraying ([7]; observed 7 days) | growth status of the watermelon seedlings after spraying [8] | growth after spraying compared with seedlings of the heterozygous mutant strains ([9]; 7 days) | growth status of the watermelon seedlings after spraying ([9]; observed 7 days)
COc1cc(OC)nc(NC(=O)NS(=O)(=O)Cc2ccccc2C(=O)O)n1 [bensulfuron] | obvious resistance | obvious resistance | obvious resistance | obvious resistance |  |  |  |  |  |  |  | 
COc1nn(C(=O)NS(=O)(=O)c2ccccc2OC(F)(F)F)c(=O)n1C [flucarbazone] | obvious resistance | obvious resistance | obvious resistance | obvious resistance |  |  |  |  |  |  |  | 
Cc1ccn2nc(S(=O)(=O)Nc3c(F)cccc3F)nc2n1 [flumetsulam] | obvious resistance | obvious resistance | obvious resistance | obvious resistance |  |  |  |  |  |  |  | 
COc1cc(OC)nc(NC(=O)NS(=O)(=O)c2c(C(=O)O)c(Cl)nn2C)n1 [halosulfuron] | obvious resistance | obvious resistance | obvious resistance | obvious resistance |  |  |  |  |  |  |  | 
COc1cc(OC)nc(NC(=O)NS(=O)(=O)c2c(C(=O)O)cnn2C)n1 [pyrazosulfuron] | obvious resistance | obvious resistance | obvious resistance | obvious resistance |  |  |  |  |  |  |  | 
COc1nc(C)nc(N(C)C(=O)NS(=O)(=O)c2ccccc2C(=O)O)n1 [tribenuron] | obvious resistance | obvious resistance | obvious resistance | obvious resistance | 3 to 7 days | died quickly | grew normally | grew better | grew normally | grew normally | grew better | grew normally
